Values of other authors, collected in patent US20210220374A1, “METHODS OF TREATING TE[…]” (Clarus Therapeutics, Inc., priority 2013, published 2021).

Conditions: cited from earlier work

Compound | Liver toxicity (oral therapy) | Serum half-life of testosterone in men (in vivo)
C[C@]12CCC(=O)C=C1CC[C@@H]1[C@@H]2CC[C@@]2(C)[C@H]1CC[C@]2(C)O [methyltestosterone] | significant occurrence of liver toxicity | –
C[C@]12CC[C@H]3[C@@H](CCC4=CC(=O)CC[C@@]43C)[C@@H]1CC[C@@H]2O [testosterone] | – | 10 to 100 min
